# Results as given in US8148392B2, “2-indolyl imidazo [4,5-d] phenanthroline derivatives and their use in the treatment of cancer” (Lorus Therapeutics Inc., priority 2005, dated 2012).
# Like-named read-outs stand apart in the source and are kept apart here.
# How the values were obtained:
# [1] = tested on: panel of 60 human cancer cell lines; test: NCI DTP in vitro anticancer screen, panel of 60 human cancer cell lines; assay type: cell-based
# Protocol: (§1) For example, the following methodology, which is currently employed by the NCI, can be used to assess the GI50 of a candidate compound of Formula I in the selected cancer cell lines. Briefly, cell suspensions are diluted (5000-40,000 cells per well) and 100 μL of the diluted cell suspension is added into 96-well microtiter plates. Inoculates are allowed a preincubation period of 24 h at 37° C. for stabilization. Dilutions at twice the intended test concentration of the candidate compound are added at time zero in 100 μL aliquots to the microtiter plate wells. Test compounds are generally evaluated at five 10-fold dilutions. In routine testing, the highest well concentration is usually 10E-4 M, but this may be adjusted depending on the compound being tested. The cells are incubated with the test compound for 48 h in 5% CO2 atmosphere and 100% humidity. The cells are then assayed by using the sulforhodamine B assay (see, for example, Skehan, P., et al. (1990) JNCI, J. Natl. Cancer Inst. 82, 1107-1112; and Chen, S. F., et al. (1990) Proc. Am. Assoc. Cancer Res. 31, A2644) employing a plate reader which can be used to read the optical densities.
# (§2) Compounds 2 and 3 were evaluated for their antiproliferative effects in a panel of 60 human cancer cell lines as part of the in vitro anticancer screening services provided by the DTP (Developmental Therapeutics Program) of the US National Cancer Institute (NCI).
# Analysis of the effects of compounds of Formula I on in vitro and in vivo cell growth inhibition were performed utilizing the methods as described in the preceding Examples. As shown in Example 12, cell growth inhibition by the parental compound 3 was screened by National Cancer Institute 60-cell line assay and leukemia, non-small cell cancer, colon cancer, renal cancer and prostate cancer panels were especially sensitive to compound 3.
# [2] = tested on: intracellular zinc ions in HT-29 cells; test: Chelation of intracellular zinc in HT-29 cells, Zinquin fluorescence; assay type: cell-based, human; conditions: HT-29 with or without pre-loading with 35 μM ZnCl2, 30 min
# Protocol: To determine the chelation property of compound 3 with intracellular zinc ions, HT-29 cells, with or without pre-loaded with 35 μM ZnCl2 were treated with compound 3, a known zinc chelator TPEN or vehicle control (DMSO), and intracellular free zinc was determined by measuring Zinquin fluorescence as described in the preceding Example (FIG. 37). HT-29 cells (4×10^5 cells/group) were pre-treated with 35 μM ZnCl2 for 20 min, followed by addition of indicated concentrations of compound 3 or TPEN and 10 μM Zinquin for 30 min at 37° C., and the fluorescence count was measured (FIG. 37A). For measurement of chelation of endogenous zinc ions in HT-29 cells, HT-29 cells (1.5×10^6 cells/group) were treated with indicated concentrations of compound 3 and 10 μM Zinquin for 30 min at 37° C., and the fluorescence count was measured (FIG. 37B).
# [3] = tested on: p21 protein; test: p21 protein in HT-29 total cell lysate, ELISA / Western blot; assay type: cell-based, human; conditions: HT-29, 1 μM
# Protocol: The expressions of p21 gene and proteins were examined following treatment with compound 3. Gene expression of p21 in HT-29 cells treated with 1 μM compound 3 was determined at the indicated times as follows. Total RNA was extracted and gene expression level was determined by RT-PCR (FIG. 42A). The level of p21 protein in total cell lysate was measured by ELISA (FIG. 42B) as follows. HT-29 cells were treated with 1 μM compound 3 with and without 20 μM MG-132 (proteasome inhibitor) for indicated time.
# [4] = tested on: normal cell lines PrEC, HMEC, WI38 and cancer cell lines DU145, MDA-MB-435, HT-29; test: Cancer cell selectivity, IC90 in normal versus cancer cell lines (XTT); assay type: cell-based, human; conditions: average IC90 of all normal / average IC90 of all cancer cell lines, 6 to 7 days
# From the text: An exemplary method of assessing the differential sensitivity between normal and cancer cells for a compound has been described by Vassilev et al. (Anti-Cancer Drug Design (2001) 16:7). This method involves the comparison of IC90 values, i.e. the molar concentration of a test compound required to cause 90% growth inhibition of exponentially growing cells. Thus, the IC90 values for candidate compounds can be evaluated in various cancer cell lines (such as those outlined above) and normal cells (such as HUVEC and/or WI38 cells) and compared. IC90 values can be measured using a variety of standard techniques as known in the art. Cancer cell selectivity is calculated as a ratio between the average IC90 for all normal cell lines and the average IC90 for all cancer cell lines. Compounds with an IC90 ratio (normal/cancer) of >4 are considered to be selective for cancer cells (L. T. Vassilev et al., Anti-cancer Drug Design, 2001, 16: 7-17).
# The normal cells lines used were PrEC (prostate), HMEC (breast), and WI38 (lung fibroblast) cell lines and the cancer cells lines were DU145 (prostate), MDA-MB-435 (breast), HT-29 (colon). IC90 values were also determined for the controls doxorubicin and etoposide. The cells were cultured as generally described in Example 13. Various concentrations of the compounds were incubated with the cells for 6 to 7 days, and the number of proliferating cells was measured using the XTT assay. Cancer cell selectivity was calculated as a ratio between the average IC90 for all normal and the average IC90 for all cancer cell lines.
# [5] = tested on: CCRF-CEM leukemia cell line; test: NCI DTP in vitro screen, CCRF-CEM; assay type: cell-based; conditions: Homo sapiens
# Protocol: as §1, with “The cells are incubated with the test compound for 48 h in 5% CO2 atmosphere and 100% humidity.” left out
# as §2
# [6] = tested on: Egr-1; test: Egr-1 gene expression in HT-29 cells, RT-PCR; assay type: cell-based, human
# Protocol: Like Sp1, Egr-1 also is a transcription factor with zinc finger DNA-binding domains, which recognizes GC-rich sequences in the regulatory promoter region of the targeted gene (Al-Sarraj et al., (2005) J. Cell Biochem. 94(1): 153-167). Changes in Egr-1 gene expression were detected in compound 3-treated HT-29 cells by RT-PCR (FIG. 44A) as follows. HT-29 cells were treated with 1 μM compound 3 for the indicated times. Total RNA was extracted and gene expression level was determined by RT-PCR. To determine the effects of zinc supplement, HT-29 cells were treated with 1 μM compound 3, 35 μM ZnCl2 or compound 3 and ZnCl2 together for 8 hr. Egr-1 gene expression was determined by RT-PCR (FIG. 44B).
# [7] = tested on: KLF5; test: KLF5 gene expression in HT-29 cells, RT-PCR; assay type: cell-based, human; conditions: HT-29, 1 μM, after 4 hr
# Protocol: HT-29 cells were treated with 1 μM compound 3 for indicated time (FIG. 41B). Total RNA was extracted and gene expression level was determined by RT-PCR.
structure (smiles),measurement,setting,value
Cc1[nH]c2ccccc2c1-c1nc2c3cccnc3c3ncccc3c2[nH]1 [Compound 3],GI50,"[1]; Homo sapiens, NCI 60-cell line assay, read-out: average GI50 of all cell lines tested",620 nM
same,GI50,"[1]; Homo sapiens, span of average values in the NCI panel (FIG. 2), read-out: GI50 average values",610 to 12300 nM
same,GI50,"[1]; average over human tumour cell lines of the NCI panel (FIG. 1), read-out: average GI50 (growth inhibition by 50%)",< 2000 nM
same,selectivity among cancer types of the NCI panel,[1]; in words,"selective inhibitor of colon, leukemia, non-small cell lung cancer, and prostate cell lines"
same,intracellular free zinc (Zinquin fluorescence),[2],Dose-dependent decrease in both pre-loaded zinc and endogenous zinc levels
same,p21 protein level,[3]; with 20 μM MG-132 (proteasome inhibitor),increased p21 protein level was detected
same,p21 protein expression,[3]; without MG-132,comparable increase in p21 protein expression was not detected
same,Normal/cancer IC90 ratio,[4],>4.3
same,GI50,[5],30 nM
same,Egr-1 expression change with zinc supplement,"[6]; HT-29, 1 μM compound plus 35 μM ZnCl2, 8 hr",reversible upon addition of zinc supplement
same,Egr-1 gene expression,"[6]; HT-29, 1 μM, as early as 2 hr",significant increase in Egr-1 gene expression
same,KLF5 gene expression,[7],decrease in KLF5 gene expression
